Reference: patent US20030181434A1, “AlphaAED and betaAED regulation of nuclear transcription, gene regulation, and/or gene expression” (priority 2002, published 2003)

Legend:
COX-2 = assay: Western blot of COX-2 level in Dunning R3327 AT-1 rat prostate tumors after treatment; type: in vivo; settings: untreated control = 100 R.A.U.
Excerpt: (§1) Dunning R3327, AT-1, rat prostate cancer, is a completely hormone-refractory tumor cell line. […] It lacks measurable quantities of receptor for androgens and estrogens. The clinical behavior of this tumor is not influenced by presence or absence of sex steroids (Isaacs et al, Prostate 9:261-281 (1986)).
(§2) After an initial passage in young male rats, the tumor was implanted dorsally into young intact (not castrated) male Copenhagen-Fischer rats (Copenhagen, Denmark) of approximately 250 grams. Tumor transplants were allowed to grow until palpable and visible and reached a mean size of 10 mm in diameter prior to treatment. The vehicle for the drug was Polyethylene glycol 400 and ethanol 1:1. The drug was injected adjacent to the tumor. […]
(§3) Thawed tumors were homogenized in ice cold lysis-buffer (160 mM NaCl, 10 mM […], 2 mM […], 0.5% Triton X-100, 100 μg/ml phenylmetylsulfonyl fluoride, 1 μg/ml leupeptin and 2 μg/ml aprotinin), placed on ice for 15 minutes and following clarification centrifuged for 10 minutes at 13,000 g. Protein content of homogenates were determined by Lowry assay Q.
(§4) Protein in lysates ([…]) were separated by electrophoresis using 8% SDS-PAGE, the isolated proteins were transferred onto a nitrocellulose membrane (Amersham) in a trans-blot electrophoretic transfer cell (Bio-Rad Laboratories). […] Optical density was measured densitometrically. […]

NF-κB = test system: NF-κB
Excerpt: as §1, §2, §3, §4

PPARγ = assay: Western blot of PPARγ level in Dunning R3327 AT-1 rat prostate tumors after treatment; type: in vivo; settings: untreated control = 100 R.A.U.
Excerpt: as §1, §2, §3, §4

[1] = AT-1 tumor samples, 96 hours after single 10 mg dose injected adjacent to tumor
[2] = AT-1 tumor samples at 19 days, βAED single 80 mg dose, or αAED 10 mg then βAED 80 mg after 96 hours

SMILES | COX-2 level, mean value (COX-2; [1]) [R.A.U.] | effect on levels of NF-κB (in words) (NF-κB; finding stated in the description, no value given) | PPARγ level, mean value (PPARγ; [1]) [R.A.U.] | COX-2 level, mean value (COX-2; [2]) [R.A.U.] | NF-κB level, mean value (NF-κB; AT-1 tumor samples at 19 days after single 80 mg dose, untreated control = 100 R.A.U.) [R.A.U.] | PPARγ level, mean value (PPARγ; [2]) [R.A.U.]
C[C@]12CC[C@H]3[C@@H](CC=C4C[C@@H](O)CC[C@@]43C)[C@@H]1CC[C@H]2O [αAED, Δ5-Androstene-3β, 17α-diol] | 203 | increases | 190 | – | – | –
C[C@]12CC[C@H]3[C@@H](CC=C4C[C@@H](O)CC[C@@]43C)[C@@H]1CC[C@@H]2O [βAED, Δ5-Androstene-3β, 17β-diol] | – | – | – | 135 | 68±13.6 | 47
